According to patent US11332492B2, “CD73 inhibitors and therapeutic uses thereof” (Jiangsu Hengrui Medicine Co., Ltd., priority 2018, dated 2022):

Key:
[1] = target: recombinant human 5′-nucleotidase (CD73) (Homo sapiens (Human), UniProt P21589); assay: Inhibition of CD73 enzyme activity in vitro (Malachite Green phosphate detection, CMP substrate); settings: 0.34 nM recombinant human CD73, 2 h pre-incubation at 37° C., 45 μM CMP; read-out: IC50 values of biochemical inhibition of CD73 enzymatic activity
Protocol: Test Example 1, Test of the Compounds of the Present Invention for their Inhibition on CD73 Enzyme Activity In Vitro
CD73 enzyme, an ecto-5′-Nucleotidase, converts extracellular nucleoside-5′-monophosphates to nucleosides, with AMP or CMP as the preferred substrate. In this assay, recombinant human CD73 expressed from a Chinese hamster ovary cell line (R&D Systems) was used to convert cytidine monophosphate (CMP) to cytidine and phosphate. Before adding substrate, CD73 enzyme was pre-incubated with compounds for 2 hours. The amount of phosphate was then measured by Malachite Green Phosphate Detection Kit. The experimental method is summarized as follows:
Compounds are first dissolved in DMSO to 10 mM as a stock solution. When determining the IC50 of the compound, prepare 3-fold serial dilutions with a highest concentration of 125 μM for a total of 12 concentration points and ensure each dilution containing equal amount of DMSO. In each well of 384-well plate, 0.34 nM of recombinant human 5′-nucleotidase (CD73) was pre-incubated at 37° C. for 2 hours with the compounds tested in assay buffer containing 20 mM HEPES buffer (pH 7.4), 137 mM NaCl, 0.001% Tween 20. The final reaction volume of the reaction in each well was 12 μL. The highest concentration of compound was 125 μM and the DMSO concentration was 1.25%. After pre-incubation, 3 μL of CMP dissolved in assay buffer was added to each reaction. The final CMP concentration was 45 μM. The reaction was incubated at 37° C. for 15 minutes. Then 3 μL of Malachite Green Reagent A was added to each reaction. Spin the plate briefly in centrifuge for 30 seconds. After incubation for additional 10 minutes at room temperature, 3 μL of malachite green Reagent B was added to each reaction. Spin the plate briefly in centrifuge for 30 seconds. After 20 minutes of incubation at room temperature, the signal was read on a TECAN reader at OD620. The reaction containing CD73 enzyme, substrate CMP and DMSO (no compound) is used as an assay positive control while the reaction containing substrate CMP and DMSO without the CD73 enzyme as an assay negative control. IC50 values were calculated by plotting the logarithm of the compound concentration and the percent inhibition using the appropriate program in GraphPad Prism.
The biochemical inhibitions of CD73 enzymatic activities by the compounds of the present invention were determined by the assay described above, and the resulting IC50 values are shown in Table 1.

[2] = test system: human peripheral blood mononuclear cells (PBMCs); assay: IFNγ cytokine production in human PBMCs with AMP and CD3/CD28 antibody beads (HTRF); type: cell-based; settings: compound 10 μM, 50 μM AMP, 72 hours
Protocol: Test Example 2 Determination of Compound of the Present Invention Modulates Cellular Immune Function by IFNγ Cytokine Production
Lymphocyte medium and TexMACS medium were incubated in a water bath at 37° C. 10 mL of incubated lymphocyte medium was added to a 50 mL conical tube. The cells were quickly thawed in a 37° C. water bath and transferred to a 50 ml tube and the tube gently swirled. The cell suspension was centrifuged at 1100 rpm for 10 minutes at room temperature. The supernatant was removed, and the cell pellet gently resuspended in 10 mL of TexMACS medium. The cells were counted to make 5×10^5 cells/ml. 100 μL of 5×10^5 cells/ml of PBMCs seeds, inserted into a 96-well plate (cell density of 50,000 cells/well), and the most outer edge wells of the 96-well plate were filled with water and were not used for the test. […] Read the values of 665 nm and 620 nm on a PHERAstar FSX Multilabel Reader.
Calculated ratio=(signal at 665 nm/signal at 620 nm)×10^4, which reflected the “raw signal”. […] The concentration of IFNγ cytokine of each sample corresponding to the standard curve was calculated. […]
The production of IFNγ cytokines by the compounds of the present invention was measured by the above test. […]

Chain of recombinant human 5′-nucleotidase (CD73) (P21589 27-574): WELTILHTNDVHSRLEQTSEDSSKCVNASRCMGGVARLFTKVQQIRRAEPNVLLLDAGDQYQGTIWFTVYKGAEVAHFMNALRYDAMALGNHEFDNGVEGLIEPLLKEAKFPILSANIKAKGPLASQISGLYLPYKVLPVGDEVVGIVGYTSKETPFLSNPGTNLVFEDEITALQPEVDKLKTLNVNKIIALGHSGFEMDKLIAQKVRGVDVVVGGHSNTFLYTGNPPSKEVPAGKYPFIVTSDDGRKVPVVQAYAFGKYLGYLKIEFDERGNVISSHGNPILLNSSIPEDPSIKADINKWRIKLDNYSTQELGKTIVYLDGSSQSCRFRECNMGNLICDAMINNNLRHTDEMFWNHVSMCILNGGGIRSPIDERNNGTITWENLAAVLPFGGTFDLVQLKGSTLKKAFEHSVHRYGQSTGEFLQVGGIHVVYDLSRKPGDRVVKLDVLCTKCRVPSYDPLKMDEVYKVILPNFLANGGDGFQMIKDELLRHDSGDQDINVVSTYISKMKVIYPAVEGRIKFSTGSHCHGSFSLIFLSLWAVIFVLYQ

Row | IC50 [1] [nM] | SMILES | Response rate of IFNγ cytokines by a compound (fold) as compared to vehicle control (DMSO) [2] [folds]
1 | 0.11 | O=P(O)(O)COC[C@H]1O[C@@H](n2ncc3c(N4CC5(CCCCC5)C4)nc(Cl)nc32)[C@H](O)[C@@H]1O [Example 1, ((((2R,3S,4R,5R)-5-(6-chloro-4-(2-azaspiro[3.5]nonan-2-yl)-1H-pyrazolo[3,4-d]pyrimidin-1-yl)-3,4-dihydroxytetrahydrofuran-2-yl)methoxy)methyl)phosphonic acid] | 4.1
2 | 0.013 | O=P(O)(O)COC[C@H]1O[C@@H](n2ncc3c(N4CC5(CCc6ccccc65)C4)nc(Cl)nc32)[C@H](O)[C@@H]1O [Example 2, ((((2R,3S,4R,5R)-5-(6-chloro-4-(2′,3′-dihydrospiro[azetidine-3,1′-inden]-1-yl)-1H-pyrazolo[3,4-d]pyrimidin-1-yl)-3,4-dihydroxytetrahydrofuran-2-yl)methoxy)methyl)phosphonic acid] | 4.3
3 | 2.1 | CC(C)OC(=O)OCOP(=O)(O)COC[C@H]1O[C@@H](n2ncc3c(N4CC5(CCc6ccccc65)C4)nc(Cl)nc32)[C@H](O)[C@@H]1O [Example 3, ((((((2R,3S,4R,5R)-5-(6-chloro-4-(2′,3′-dihydrospiro[azetidine-3,1′-inden]-1-yl)-1H-pyrazolo[3,4-d]pyrimidin-1-yl)-3,4-dihydroxytetrahydrofuran-2-yl)methoxy)methyl)(hydroxy)phosphoryl)oxy)methyl isopropyl carbonate] | –
4 | 710 | CC(C)OC(=O)OCOP(=O)(COC[C@H]1O[C@@H](n2ncc3c(N4CC5(CCc6ccccc65)C4)nc(Cl)nc32)[C@H](O)[C@@H]1O)OCOC(=O)OC(C)C [Example 4, ((((((2R,3S,4R,5R)-5-(6-chloro-4-(2′,3′-dihydrospiro[azetidine-3,1′-inden]-1-yl)-1H-pyrazolo[3,4-d]pyrimidin-1-yl)-3,4-dihydroxytetrahydrofuran-2-yl)methoxy)methyl)phosphoryl)bis(oxy))bis(methylene) diisopropyl decarbonate] | –
5 | 0.074 | O=P(O)(O)COC[C@H]1O[C@@H](n2ncc3c(N4CC5(C4)OCc4cc(Cl)ccc45)nc(Cl)nc32)[C@H](O)[C@@H]1O [Example 5, ((((2R,3S,4R,5R)-5-(6-chloro-4-(5′-chloro-3′H-spiro[azetidine-3,1′-isobenzofuran]-1-yl)-1H-pyrazolo[3,4-d]pyrimidin-1-yl)-3,4-dihydroxytetrahydrofuran-2-yl)methoxy)methyl)phosphonic acid] | –
6 | 0.25 | O=P(O)(O)COC[C@H]1O[C@@H](n2ncc3c(N4CC5(CCc6ccc(F)cc65)C4)nc(Cl)nc32)[C@H](O)[C@@H]1O [Example 6, ((((2R,3S,4R,5R)-5-(6-chloro-4-(6′-fluoro-2′,3′-dihydrospiro[azetidine-3,1′-inden]-1-yl)-1H-pyrazolo[3,4-d]pyrimidin-1-yl)-3,4-dihydroxytetrahydrofuran-2-yl)methoxy)methyl)phosphonic acid] | –
7 | 0.13 | COc1ccc2c(c1)CCC21CN(c2nc(Cl)nc3c2cnn3[C@@H]2O[C@H](COCP(=O)(O)O)[C@@H](O)[C@H]2O)C1 [Example 7, ((((2R,3S,4R,5R)-5-(6-chloro-4-(5′-methoxy-2′,3′-dihydrospiro[azetidine-3,1′-inden]-1-yl)-1H-pyrazolo[3,4-d]pyrimidin-1-yl)-3,4-dihydroxytetrahydrofuran-2-yl)methoxy)methyl)phosphonic acid] | –
8 | 8.5 | CC(OC(=O)C(C)(C)C)OP(=O)(O)COC[C@H]1O[C@@H](n2ncc3c(N4CC5(CCc6ccccc65)C4)nc(Cl)nc32)[C@H](O)[C@@H]1O (stereo partly drawn) [Example 9, 1-((((((2R,3S,4R,5R)-5-(6-chloro-4-(2′,3′-dihydrospiro[azetidine-3,1′-inden]-1-yl)-1H-pyrazolo[3,4-d]pyrimidin-1-yl)-3,4-dihydroxytetrahydrofuran-2-yl)methoxy)methyl)(hydroxy)phosphoryl)oxy)ethyl pivalate] | –
9 | 300 | O=P(O)(O)Cc1cccc(OC[C@H]2O[C@@H](n3ncc4c(N5CC6(CCCCC6)C5)nc(Cl)nc43)[C@H](O)[C@@H]2O)c1 [Example 12, (3-(((2R,3S,4R,5R)-5-(6-chloro-4-(2-azaspiro[3.5]nonan-2-yl)-1H-pyrazolo[3,4-d]pyrimidin-1-yl)-3,4-dihydroxytetrahydrofuran-2-yl)methoxy)benzyl)phosphonic acid] | –

Row | SMILES | IC50 [1] [nM] | Response rate of IFNγ cytokines by a compound (fold) as compared to vehicle control (DMSO) [2] [folds]
10 | O=P(COC[C@H]1O[C@@H](n2ncc3c(N4CC5(CCc6ccccc65)C4)nc(Cl)nc32)[C@H](O)[C@@H]1O)(Oc1ccccc1)Oc1ccccc1 [Example 10, diphenyl((((2R,3S,4R,5R)-5-(6-chloro-4-(2′,3′-dihydrospiro[azetidine-3,1′-inden]-1-yl)-1H-pyrazolo[3,4-d]pyrimidin-1-yl)-3,4-dihydroxytetrahydrofuran-2-yl)methoxy)methyl)phosphonate] | 7.6 | –
11 | O=P(O)(COC[C@H]1O[C@@H](n2ncc3c(N4CC5(CCc6ccccc65)C4)nc(Cl)nc32)[C@H](O)[C@@H]1O)Oc1ccccc1 [Example 11, phenyl hydrogen ((((2R,3S,4R,5R)-5-(6-chloro-4-(2′,3′-dihydrospiro[azetidine-3,1′-inden]-1-yl)-1H-pyrazolo[3,4-d]pyrimidin-1-yl)-3,4-dihydroxytetrahydrofuran-2-yl)methoxy)methyl)phosphonate] | 0.9 | –
